Measurements reported in patent EP4778922A1, “BICYCLIC COMPOUND, AND PREPARATION METHOD THEREFOR AND PHARMACEUTICAL USE THEREOF” (Shanghai Jeyou Pharmaceutical Co., Ltd., priority 2023, dated 2025).
Read-outs that look alike come from different tables or passages of the source.

What was measured:
[1] = tested on: 22RV1 cells; assay: Cell proliferation inhibition assay in 22RV1 cells (CellTiter-Glo, 7 days); assay type: cell-based, human; details: Homo sapiens
Method in brief: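 22RV1 cells received compound alone; LNCaP cells were stimulated with 0.2 nM DHT added 1 h after compound. Seeding was 3000 cells/well.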

[2] = Mouse pharmacokinetic test; assay type: in vivo, ICR mice; details: plasma; for Tmax: read-out: Tmax
Protocol: Formulation preparation: The dosing solutions were prepared on the day of administration.
Six healthy male naive ICR mice weighing 25-30 g were selected and divided into two groups (intravenous and oral groups), with three mice in each group, and administered a single dose. […] Feeding was resumed 4 h after administration. Timing was initiated following intravenous and oral administration. […] The collected whole blood was briefly vortexed twice for mixing, placed on wet ice, and centrifuged at 4°C and 8000 rpm for 5 min within 1 h. The supernatant plasma was collected and stored at -80°C until processing and analysis. Table 3: Pharmacokinetics in mice

SMILES	IC50 ([1]; 168 h) [nM]	IC50 ([1]; 22Rv1, 168 h) [nM]	AUC(0-inf) ([2]; po, 30 mg/kg, PO-30mpk) [µg·h/mL]	Cmax ([2]; po, 30 mg/kg, PO-30mpk) [ng/mL]	half-life ([2]; po, 30 mg/kg, PO-30mpk) [h]	Tmax ([2]; po, 30 mg/kg, PO-30mpk) [h]	other results
CC(C)(c1ccc(-c2ccc(OCc3ccnc(N4CC(S(C)(=N)=O)C4)n3)cn2)cc1)c1cc(Cl)c(OCCCl)c(C#N)c1 (racemic) [Compound 242]		490	607	78000	4.4	4	
CC(C)(c1ccc(-c2ccc(OCc3ccnc(N=S4(=O)CCCC4)n3)cn2)cc1)c1cc(Cl)c(OCCCl)c(C#N)c1 [Compound 16]		940	211	36100	1.46	1.67	
CC(C)(c1ccc(-c2ccc(OCc3ccnc(P(C)(C)=O)n3)nc2)cc1)c1cc(Cl)c(OCCCl)c(C#N)c1 [Compound 17]		960	420	35700	5.82	4.67	C0 ([2]; 0.5 mg/kg, IV-0.5mpk): 982 ng/mL; clearance ([2]; 0.5 mg/kg, IV-0.5mpk): 1.1 mL/min/kg; bioavailability ([2]; 30 mg/kg, PO-30mpk vs IV-0.5mpk): 92.2%; AUC(0-inf) ([2]; iv, 0.5 mg/kg, IV-0.5mpk): 7.59 µg·h/mL; half-life ([2]; iv, 0.5 mg/kg, IV-0.5mpk): 5.6 h
CC(C)(c1ccc(-c2ccc(Oc3ccnc(P(C)(C)=O)n3)cc2)cc1)c1cc(Cl)c(OCCCl)c(C#N)c1 [Compound 26]		1420	368	29500	7.81	3.33	
CC(C)(c1ccc(-c2ccc(OCc3ccnc(N=S(C)(C)=O)n3)cc2)cc1)c1cc(Cl)c(OCCCl)c(C#N)c1 [Compound 44]		940	219	11700	9.35	4.67	
CC(C)(c1ccc(-c2ccc(OCC3CN(c4ccnc(P(C)(C)=O)n4)C3)cc2)cc1)c1cc(Cl)c(OCCCl)c(C#N)c1 [Compound 70]		500	187	14700	5.13	4	
CC(C)(c1ccc(-c2ccc(OCc3ccnc(N4CC5(COC5)C4)n3)cn2)cc1)c1cc(Cl)c(OCCCl)c(C#N)c1 [Compound 82]		860	171	24900	8.3	2.7	
CC(C)(c1ccc(-c2ccc(OC3CCN(c4ccnc(P(C)(C)=O)n4)CC3)nc2)cc1)c1cc(Cl)c(OCCCl)c(C#N)c1 [Compound 103]		690	247	18100	7.5	4	
CC(C)(c1ccc(-c2ccc(OCc3ccnc(P(C)(C)=O)n3)c(F)c2)cc1)c1cc(Cl)c(OCCCl)c(C#N)c1 [Compound 117]		680	304	15700	12.1	4	
CC(C)(c1ccc(-c2ccc(OCc3ccnc(N4CC(P(C)(C)=O)C4)n3)cc2)cc1)c1cc(Cl)c(OCCCl)c(C#N)c1 [Compound 135]		230	207	13600	5.6	6	
CC(C)(c1ccc(-c2ccc(OCc3ccnc(C4CN(S(C)(=O)=O)C4)n3)cc2)cc1)c1cc(Cl)c(OCCCl)c(C#N)c1 [Compound 145]		600	273	15800	15.3	4	
CC(C)(c1ccc(-c2ccc(OCc3ccnc(N4CC(NS(C)(=O)=O)C4)n3)cc2)cc1)c1cc(Cl)c(OCCCl)c(C#N)c1 [Compound 161]		450	376	11800	22.7	4	
CC(C)(c1ccc(-c2ccc(OCc3ccnc(N4CC(CS(C)(=O)=O)C4)n3)cc2)cc1)c1cc(Cl)c(OCCCl)c(C#N)c1 [Compound 175]		490	320	9200	21.1	4	
CC(C)(c1ccc(-c2ccc(OCc3ccnc(N4CC(S(N)(=O)=O)C4)n3)cn2)cc1)c1cc(Cl)c(OCCCl)c(C#N)c1 [Compound 180]		800	309	34600	5.17	3	
CC(C)(c1ccc(-c2ccc(OCc3cccc(S(C)(=N)=O)n3)cc2)cc1)c1cc(Cl)c(OCCCl)c(C#N)c1 (stereo not shown) [Compound 188]		1030	211	17300	7.5	3	
CCCOc1c(Cl)cc(C(C)(C)c2ccc(-c3ccc(OCc4ccnc(P(C)(C)=O)n4)cc3)cc2)cc1C#N [Compound 191]	410						AUC(0-inf) ([2]; 30 mg/kg, PO-30mpk): 481 µg·h/mL; Cmax ([2]; 30 mg/kg, PO-30mpk): 25000 ng/mL; half-life ([2]; 30 mg/kg, PO-30mpk): 13.2 h; Tmax ([2]; 30 mg/kg, PO-30mpk): 4 h
CC(C)(c1ccc(-c2ccc(OCc3ccnc(N4CC[C@H](S(C)(=O)=O)C4)n3)cc2)cc1)c1cc(Cl)c(OCCCl)c(C#N)c1 [Compound 202]		660	202	8880	18.5	4	
CC(C)(c1ccc(-c2ccc(OCc3ncc(P(C)(C)=O)s3)cc2)cc1)c1cc(Cl)c(OCCCl)c(C#N)c1 [Compound 221]		1040	464	19300	10.4	5	
COc1c(Cl)cc(C(C)(C)c2ccc(-c3ccc(OCc4ccnc(P(C)(C)=O)n4)cc3)cc2)cc1C#N [Compound 237]		860	213	16200	4.2	3	
CC(C)(c1ccc(-c2ccc(OCc3ccnc(N4CC5(CC(S(C)(=N)=O)C5)C4)n3)cc2)cc1)c1cc(Cl)c(OCCCl)c(C#N)c1 (stereo not shown) [Compound 245]		990	181	11000	7.3	5	

Second part, led by results:

IC50 ([1]; 168 h) [nM]	SMILES	IC50 ([1]; 22Rv1, 168 h) [nM]	AUC(0-inf) ([2]; po, 30 mg/kg, PO-30mpk) [µg·h/mL]	Cmax ([2]; po, 30 mg/kg, PO-30mpk) [ng/mL]	half-life ([2]; po, 30 mg/kg, PO-30mpk) [h]	Tmax ([2]; po, 30 mg/kg, PO-30mpk) [h]	other results
74	CC(C)(c1ccc(-c2ccc(/C=C/c3cnc(N=S4(=O)CCOCC4)nc3)cc2)cc1)c1cc(Cl)c(OCCCl)c(C#N)c1 [Compound 293]						
820	CC(C)(c1ccc(-c2ccc(/C=C/c3ccnc(N=S4(=O)CCOCC4)n3)cc2)cc1)c1cc(Cl)c(OCCCl)c(C#N)c1 [Compound 294]						
480	CC(C)(c1ccc(-c2ccc(OCC3CC(CN4CCS(=O)(=O)CC4)C3)cc2)cc1)c1cc(Cl)c(OCCCl)c(C#N)c1 (stereo not shown) [Compound 296]						
970	CC(C)(c1ccc(-c2ccc(OCCN3CC4(C3)CS(=O)(=O)C4)cc2)cc1)c1cc(Cl)c(OCCCl)c(C#N)c1 [Compound 299]						
490	CC(C)(c1ccc(-c2ccc(OCC3CC(CN4CC5(CCS(=O)(=O)CC5)C4)C3)cc2)cc1)c1cc(Cl)c(OCCCl)c(C#N)c1 (stereo not shown) [Compound 303]						
810	Cc1cc(OCc2ccc(-c3cnc(P(C)(C)=O)nc3)cc2)ccc1-c1ccc(C(C)(C)c2cc(Cl)c(OCCCl)c(C#N)c2)cc1 [Compound 304]						
660	CC(C)(c1ccc(-c2ccc(OCC3CC(CN4CC5(C4)CS(=N)(=O)C5)C3)cc2)cc1)c1cc(Cl)c(OCCCl)c(C#N)c1 (stereo not shown) [Compound 307]						
460	CC(C)(c1ccc(-c2ccc(OCC3CCC(CN4CC5(C4)CS(=O)(=O)C5)CC3)cc2)cc1)c1cc(Cl)c(OCCCl)c(C#N)c1 (stereo not shown) [Compound 309]						
940	CC(C)(c1ccc(-c2ccc(OCC3CN(C(=O)C4CC5(C4)CS(=O)(=O)C5)C3)cc2)cc1)c1cc(Cl)c(OCCCl)c(C#N)c1 [Compound 310]						
540	CC(C)(c1ccc(-c2ccc(OCC3CC(CN4CC5(CCS(=N)(=O)CC5)C4)C3)cc2)cc1)c1cc(Cl)c(OCCCl)c(C#N)c1 (stereo not shown) [Compound 311]						
890	C[C@@H](Cl)COc1c(Cl)cc(C(C)(C)c2ccc(-c3ccc(OCc4ccnc(P(C)(C)=O)n4)cc3)cc2)cc1C#N [Compound 313]						
1140	CNC1CN(c2nccc(COc3ccc(-c4ccc(C(C)(C)c5cc(Cl)c(OCCCl)c(C#N)c5)cc4)cc3)n2)C1 [Compound 314]						
680	C[C@H](O)CN1CCS(=O)(=Nc2nccc(COc3ccc(-c4ccc(C(C)(C)c5cc(Cl)c(OCCCl)c(C#N)c5)cc4)cc3)n2)CC1 [Compound 316]						
730	CC(C)(c1ccc(-c2ccc(OCC3CCC(CN4CC5(C4)CS(=N)(=O)C5)CC3)cc2)cc1)c1cc(Cl)c(OCCCl)c(C#N)c1 (stereo not shown) [Compound 318]						
1200	CC(C)(c1ccc(-c2ccc(OCC34CC(c5cnc(N6CC(S(C)(=O)=O)C6)nc5)(C3)C4)cc2)cc1)c1cc(Cl)c(OCCCl)c(C#N)c1 [Compound 321]						
300	CC(C)(c1ccc(-c2ccc(OCCN3CCS(=N)(=O)CC3)cc2)cc1)c1cc(Cl)c(OCCCl)c(C#N)c1 [Compound 324]						
980	CC(C)(c1ccc(-c2ccc(Oc3ccnc(P(C)(C)=O)n3)nc2)cc1)c1cc(Cl)c(OCCCl)c(C#N)c1 [Compound 326]						
1110	CC(C)(c1ccc(-c2ccc(OCC3CC4(C3)CS(=N)(=O)C4)cn2)cc1)c1cc(Cl)c(OCCCl)c(C#N)c1 (stereo not shown) [Compound 328]						
390	CC(C)(c1ccc(-c2ccc(OCc3ccnc(N4CC5(CCS5(=N)=O)C4)n3)cc2)cc1)c1cc(Cl)c(OCCCl)c(C#N)c1 (stereo not shown) [Compound 329]						
280	CC(C)(c1ccc(-c2ccc(OCCOc3nccc(P(C)(C)=O)n3)cc2)cc1)c1cc(Cl)c(OCCCl)c(C#N)c1 [Compound 330]						
680	CC(C)(c1ccc(-c2ccc(OCc3ccnc(N4CC(S(=N)(=O)C5CC5)C4)n3)cn2)cc1)c1cc(Cl)c(OCCCl)c(C#N)c1 (stereo not shown) [Compound 336]						
880	CC(C)(c1ccc(-c2ccc(OCC3CC4(C3)CN(c3ccnc(P(C)(C)=O)n3)C4)cc2)cc1)c1cc(Cl)c(OCCCl)c(C#N)c1 [Compound 393]						
